What was measured:
[1] = target: T1, Alpha-2A adrenergic receptor [16-465] (Rattus norvegicus, UniProt P22909)
T1 construct: 16-465
T1 sequence (P22909 whole entry): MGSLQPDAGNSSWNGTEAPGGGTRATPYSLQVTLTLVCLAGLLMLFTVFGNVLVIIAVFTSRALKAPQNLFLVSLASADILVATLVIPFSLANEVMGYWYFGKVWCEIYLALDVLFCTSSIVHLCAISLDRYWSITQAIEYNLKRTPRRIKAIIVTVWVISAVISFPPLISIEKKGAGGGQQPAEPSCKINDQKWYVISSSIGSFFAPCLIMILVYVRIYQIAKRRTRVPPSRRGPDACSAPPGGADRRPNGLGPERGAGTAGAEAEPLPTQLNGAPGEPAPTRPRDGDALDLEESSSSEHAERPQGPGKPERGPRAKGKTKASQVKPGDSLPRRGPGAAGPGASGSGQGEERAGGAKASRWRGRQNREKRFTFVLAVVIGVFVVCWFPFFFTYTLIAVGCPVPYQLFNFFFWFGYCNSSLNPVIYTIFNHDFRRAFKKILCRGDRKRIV

[2] = target: Prostaglandin G/H synthase 1 (Homo sapiens, UniProt P23219)
[3] = target: 5-hydroxytryptamine receptor 2A (Rattus norvegicus, UniProt P14842)
[4] = target: D(1A) dopamine receptor (Homo sapiens, UniProt P21728)
[5] = target: T2, Thromboxane-A synthase (Homo sapiens, UniProt P24557)
T2 sequence (P24557 whole entry): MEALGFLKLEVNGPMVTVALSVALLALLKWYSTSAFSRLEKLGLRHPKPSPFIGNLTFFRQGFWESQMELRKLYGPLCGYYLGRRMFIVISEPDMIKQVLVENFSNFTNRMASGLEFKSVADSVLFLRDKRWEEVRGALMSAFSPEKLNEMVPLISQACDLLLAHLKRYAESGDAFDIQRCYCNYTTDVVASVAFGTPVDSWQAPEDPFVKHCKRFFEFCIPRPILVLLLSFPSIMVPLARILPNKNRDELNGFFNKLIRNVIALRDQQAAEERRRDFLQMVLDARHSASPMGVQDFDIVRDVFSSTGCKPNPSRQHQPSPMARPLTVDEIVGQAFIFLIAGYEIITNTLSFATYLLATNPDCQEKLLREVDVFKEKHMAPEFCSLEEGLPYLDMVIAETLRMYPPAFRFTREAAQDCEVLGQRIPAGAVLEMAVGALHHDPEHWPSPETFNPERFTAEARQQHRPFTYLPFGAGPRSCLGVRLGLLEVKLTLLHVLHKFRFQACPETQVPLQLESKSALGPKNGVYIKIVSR

[6] = target: D(2) dopamine receptor (Homo sapiens, UniProt P14416)
[7] = target: T3, Muscarinic acetylcholine receptor M1 (Homo sapiens, UniProt P11229)
T3 sequence (P11229 whole entry): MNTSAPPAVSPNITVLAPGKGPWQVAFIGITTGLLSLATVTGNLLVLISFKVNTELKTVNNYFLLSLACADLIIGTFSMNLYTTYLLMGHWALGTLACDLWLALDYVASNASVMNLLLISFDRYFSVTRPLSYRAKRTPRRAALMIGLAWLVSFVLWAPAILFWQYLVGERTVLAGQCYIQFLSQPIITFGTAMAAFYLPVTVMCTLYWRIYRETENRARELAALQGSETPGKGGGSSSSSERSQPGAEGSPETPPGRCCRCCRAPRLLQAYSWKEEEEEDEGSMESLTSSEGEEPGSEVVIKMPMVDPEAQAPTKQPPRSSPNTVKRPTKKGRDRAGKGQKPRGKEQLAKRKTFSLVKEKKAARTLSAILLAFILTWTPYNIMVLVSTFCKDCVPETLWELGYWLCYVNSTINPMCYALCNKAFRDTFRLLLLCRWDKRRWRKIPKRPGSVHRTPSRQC

[8] = target: T4, Prostaglandin D2 receptor (Homo sapiens, UniProt Q13258)
T4 sequence (Q13258 whole entry): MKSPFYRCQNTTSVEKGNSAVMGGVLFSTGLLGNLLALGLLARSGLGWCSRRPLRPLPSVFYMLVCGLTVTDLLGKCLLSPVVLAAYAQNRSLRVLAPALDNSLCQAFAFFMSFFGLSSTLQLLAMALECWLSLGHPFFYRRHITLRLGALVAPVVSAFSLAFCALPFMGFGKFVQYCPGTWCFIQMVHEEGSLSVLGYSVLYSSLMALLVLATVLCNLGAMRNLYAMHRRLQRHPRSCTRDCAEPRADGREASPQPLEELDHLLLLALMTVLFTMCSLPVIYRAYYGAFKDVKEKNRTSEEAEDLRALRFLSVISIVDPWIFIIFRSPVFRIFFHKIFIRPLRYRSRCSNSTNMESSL

[9] = target: T5, Prostaglandin G/H synthase 2 (Homo sapiens, UniProt P35354)
T5 sequence (P35354 whole entry): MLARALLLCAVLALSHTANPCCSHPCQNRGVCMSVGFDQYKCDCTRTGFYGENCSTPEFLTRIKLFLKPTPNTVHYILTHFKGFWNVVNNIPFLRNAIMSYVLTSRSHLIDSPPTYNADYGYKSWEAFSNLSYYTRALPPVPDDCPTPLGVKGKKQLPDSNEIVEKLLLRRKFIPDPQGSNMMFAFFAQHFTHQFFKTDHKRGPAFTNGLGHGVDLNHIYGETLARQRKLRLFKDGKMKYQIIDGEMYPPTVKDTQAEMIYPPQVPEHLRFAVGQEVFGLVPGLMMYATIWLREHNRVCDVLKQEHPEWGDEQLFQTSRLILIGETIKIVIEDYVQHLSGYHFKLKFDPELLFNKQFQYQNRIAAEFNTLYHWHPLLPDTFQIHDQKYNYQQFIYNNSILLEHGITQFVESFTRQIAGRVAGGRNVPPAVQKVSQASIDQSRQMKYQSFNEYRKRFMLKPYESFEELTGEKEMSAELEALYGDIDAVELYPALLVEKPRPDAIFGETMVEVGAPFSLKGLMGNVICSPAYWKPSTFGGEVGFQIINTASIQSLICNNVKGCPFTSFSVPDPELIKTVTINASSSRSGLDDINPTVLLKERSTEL

Measured: Ki

Chain of D(2) dopamine receptor (P14416 whole entry): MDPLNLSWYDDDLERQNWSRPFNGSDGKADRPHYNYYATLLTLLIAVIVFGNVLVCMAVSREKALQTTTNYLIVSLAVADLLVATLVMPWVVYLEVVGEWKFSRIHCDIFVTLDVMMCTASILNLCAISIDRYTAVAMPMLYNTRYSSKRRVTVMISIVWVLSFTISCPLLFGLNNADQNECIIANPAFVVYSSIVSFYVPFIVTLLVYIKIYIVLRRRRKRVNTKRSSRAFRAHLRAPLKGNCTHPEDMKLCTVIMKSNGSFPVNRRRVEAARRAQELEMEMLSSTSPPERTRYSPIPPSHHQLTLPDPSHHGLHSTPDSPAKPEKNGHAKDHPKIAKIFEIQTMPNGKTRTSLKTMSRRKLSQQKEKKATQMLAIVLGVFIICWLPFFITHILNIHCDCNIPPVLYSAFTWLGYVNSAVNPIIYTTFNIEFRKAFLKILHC
Chain of D(1A) dopamine receptor (P21728 whole entry): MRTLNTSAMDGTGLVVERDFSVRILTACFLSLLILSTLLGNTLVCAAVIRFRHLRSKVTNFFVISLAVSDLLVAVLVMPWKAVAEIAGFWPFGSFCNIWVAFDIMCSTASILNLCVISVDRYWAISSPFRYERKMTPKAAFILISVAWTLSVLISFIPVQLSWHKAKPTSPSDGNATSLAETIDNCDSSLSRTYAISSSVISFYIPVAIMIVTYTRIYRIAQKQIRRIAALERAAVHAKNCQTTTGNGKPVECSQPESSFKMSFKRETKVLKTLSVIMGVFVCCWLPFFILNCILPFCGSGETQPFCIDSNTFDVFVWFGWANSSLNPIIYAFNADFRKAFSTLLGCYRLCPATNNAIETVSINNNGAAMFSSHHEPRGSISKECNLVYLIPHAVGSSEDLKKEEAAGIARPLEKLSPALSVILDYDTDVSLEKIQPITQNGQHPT
Chain of Prostaglandin G/H synthase 1 (P23219 whole entry): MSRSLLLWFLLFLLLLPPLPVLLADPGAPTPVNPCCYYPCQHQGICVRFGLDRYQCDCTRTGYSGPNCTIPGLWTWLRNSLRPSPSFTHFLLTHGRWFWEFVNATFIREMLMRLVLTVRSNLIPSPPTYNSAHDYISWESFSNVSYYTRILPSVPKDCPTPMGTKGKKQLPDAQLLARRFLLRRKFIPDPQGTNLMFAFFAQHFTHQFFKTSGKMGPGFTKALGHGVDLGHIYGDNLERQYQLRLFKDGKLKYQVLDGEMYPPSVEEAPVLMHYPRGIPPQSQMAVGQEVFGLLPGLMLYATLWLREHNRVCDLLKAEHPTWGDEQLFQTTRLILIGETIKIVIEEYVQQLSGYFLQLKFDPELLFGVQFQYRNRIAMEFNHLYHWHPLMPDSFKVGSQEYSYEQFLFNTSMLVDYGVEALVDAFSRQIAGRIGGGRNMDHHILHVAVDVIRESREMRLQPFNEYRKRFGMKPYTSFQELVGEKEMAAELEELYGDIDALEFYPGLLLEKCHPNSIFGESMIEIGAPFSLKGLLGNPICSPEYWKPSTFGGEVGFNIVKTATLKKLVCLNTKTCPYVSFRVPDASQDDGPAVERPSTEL
Chain of 5-hydroxytryptamine receptor 2A (P14842 whole entry): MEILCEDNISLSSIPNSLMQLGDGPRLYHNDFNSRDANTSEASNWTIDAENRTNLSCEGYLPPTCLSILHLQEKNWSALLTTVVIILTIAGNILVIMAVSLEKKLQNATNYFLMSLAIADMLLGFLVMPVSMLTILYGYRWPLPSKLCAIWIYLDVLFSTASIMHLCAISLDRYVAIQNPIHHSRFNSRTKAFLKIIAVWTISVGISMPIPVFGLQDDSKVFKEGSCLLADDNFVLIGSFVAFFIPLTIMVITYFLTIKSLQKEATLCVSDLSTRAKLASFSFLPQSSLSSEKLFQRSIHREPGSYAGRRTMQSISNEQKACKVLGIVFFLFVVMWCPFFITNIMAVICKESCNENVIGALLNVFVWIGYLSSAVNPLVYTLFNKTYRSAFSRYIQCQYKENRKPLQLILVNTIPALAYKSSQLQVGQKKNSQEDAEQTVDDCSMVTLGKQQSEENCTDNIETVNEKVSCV

CC(C)C(=O)N(c1ccccc1)C1CC(C)N(C(=O)c2ccccc2)c2ccccc21 (configuration not stated) [K117]
> 1000 nM: all assays above

CCC(=O)N1c2ccccc2C(N(C(C)=O)c2ccccc2)CC1C (configuration not stated) [K376]
> 1000 nM: all assays above

CC1CC(N(C(=O)C2CC2)c2ccccc2)c2ccccc2N1C(=O)c1ccccc1 (configuration not stated) [K604]
> 1000 nM: all assays above

From BindingDB's records for doi:10.1124/jpet.104.081539 (Kyowa Hakko Kogyo, 2005)
